These results are taken from US10315990B2, “Isothiocyanate compounds and isothiocyanate XPO1 protein inhibitor drugs thereof” (DRIVINGFORCE THERAPEUTICS Co., Ltd., priority 2015, dated 2019).

What all share (assay type): cell-based
For one test, the system named is HMLE-Snail cell line. Description: Formation of HMLE-Snail cell line spheroids. Particulars: 10 μg/ml, treated for 24 hours; control = 100; read-out: Colony (%): cell colony number of drug-treated group/cell colony number of control group × 100%.
The subject of the next test is HCT116. The test is described as follows: Inhibitory activity for high metastasis type colon cancer cell line (MTT or CCK-8). Particulars: Homo sapiens, HCT-116; HCT116, 72 hours; read-out: IC50. The method, then: (§1) SW620 and HCT116 are two typical high metastasis type colon cancer cell lines. The colon cancer cell line was inoculated on 96-well cell culture plate in an amount of 6000 cells per well and cultured at 37° C. for 24 hours, and then treated solely with the compound added therein and cultured. Seventy-two hours later, MTT or CCK-8 method was used to detect the inhibitory activity of the compound for the two high metastasis type colon cancer cell lines.

The next test relates to SW620. Described as above. Particulars: Homo sapiens, SW-620; SW620, 72 hours; read-out: IC50. On the procedure: as §1
In another test the test system is KYSE-70. Description: Inhibitory activity for other high metastasis type cancer cell line (MTT or CCK-8). The conditions noted are these: Homo sapiens; KYSE-70, 72 hours; read-out: IC50.

What is called pIC50 is the IC50 on a negative log10 scale, so that one unit is a factor of ten.

pIC50: −log10 of the molar value.

For the compound `C[S+]([O-])CCCCN=C=S` (stereo not shown) [SFN, sulforaphane, reference compound], in the test on HMLE-Snail cell line, the activity at 10 µg/mL is 90%. Besides, the figures for the pIC50 in the test on HCT116, with SW620 and with KYSE-70 were 4.88, 4.82 and 4.95, respectively.
